In US3932633A, “Novel o-triazenobenzamides, in treating aggressive behavior” (Uniroyal Inc., priority 1974, dated 1976):
Where a name gives a salt, the structure may show the parent alone. Read-outs that look alike come from different tables or passages of the source.

What was measured:
[1] = tested on: isolation-induced fighting in mice; assay: Isolated fighting mouse (IFM) test / isolated mouse aggression; type: in vivo; details: for ED50 / responders at 30 mg/kg: Mus musculus, ip; for responders at 30 mg/kg: 30 mg/kg intraperitoneally, at least 40% protected = active; for protected test animals in the IFM test: dose not restated in this sentence
Description: *IFM - Isolated fighting mouse test at a dose of 30 mg/kg
intraperitoneally; those compounds which protected at least 40% of the
(§1) Two models of aggression are used in the primary screening for neuroleptics, (1) isolation-induced fighting in mice (IFM), and (2) aggression induced in rats by destruction of the septal area (septal rat). Compounds are first submitted, however, to the neuropharmacological profile, a standard procedure (see, e.g., Samuel Irwin, Science, 136, 123 [1962]) employed in screening a compound to determine its usefulness as a central nervous system active compound. Those agents which cause depression over a wide dose range are then submitted to the first anti-aggression screen, the isolation-induced fighting mouse assay.
(§2) The compound of Example 6 was compared with chlorpromazine and chlordiazepoxide for its anti-aggressive activity. Three models of experimentally-induced aggression in rodents were studied (R. D. Sofia, Life Science, 8: 705, 1969).

[2] = Neurotoxicity (rotating rod / rotorod), rats; details: rat, in vivo, ip; I.P., rats; 95% confidence limits; read-out: NTD50
Description: (§3) In the neurotoxicity test, the value (NTD50) is defined as the dose necessary to cause 50% of mice or rats trained to walk a rotating wooden rod (5 rpm) to fall at the time of peak effect, and is a measure of drug effects on motor function or central nervous system toxicity. The results set forth in Table III were obtained when the compound of Example 6 was tested against chlorpromazine and chlordiazepoxide.

[3] = Neurotoxicity (rotating rod / rotorod), mice; details: mouse, in vivo
Description: as §3

[4] = tested on: dihydroxyphenylalanine-induced fighting behavior in mice; assay: Dihydroxyphenylalanine (DOPA) fighting test; type: in vivo, mouse; details: 200 mg/kg d1-DOPA; pargyline 80 mg/kg, Example 6 100 mg/kg, chlorpromazine 5 mg/kg, chlordiazepoxide 15 mg/kg
Description: It is well known that when monoamine oxidase inhibitors are administered prior to the administration of d1-DOPA, which is a noradrenaline precursor, convulsions or excitation occur. In this study, the MAO inhibitor pargyline (80 mg/kg) was given 1, 2 and 4 hours prior to administering 200 mg/kg of d1-DOPA. […] Thus, in this procedure, none of the agents tested appears to be a MAO inhibitor.

[5] = 5 day lethality, mice; details: mouse, in vivo, Mice, 5 day, 10 per cage, read-out: LD50 (95% Confidence Limits)
Source text: (§4) Table VIII gives the results of 5 day lethality studies following single injections of drug. All values presented represent tests conducted when animals were housed 10 per cage. The compound of Example 6 was compared with chlorpromazine and chlordiazepoxide. In these and all the preceding calculations, the method of Litchfield and Wilcoxon (J. Pharmacol. Exptl. Ther., 96: 99, 1949) was used to estimate effective (ED50) or lethal (LD50) dose.

[6] = 5 day lethality, rats; details: rat, in vivo, ip; Rats, I.P., 5 day, 10 per cage; read-out: LD50 (95% Confidence Limits)
Source text: as §4

[7] = tested on: hissing response elicited by hypothalamic stimulation in cats; details: Baxter, Life Sciences, 3: 531, 1964, cited from earlier work
[8] = tested on: d-amphetamine aggregation-induced lethality; assay: d-Amphetamine aggregation; type: in vivo; details: inactive at: Example 6 200 mg/kg, chlordiazepoxide 50 mg/kg
Description: Protection from d-amphetamine aggregation-induced lethality is usually afforded by alpha-adrenergic-blocking agents such as chlorpromazine, phenoxybenzamine, etc. Percent protection was determined and an ED50 value was calculated.

[9] = tested on: pentylenetetrazol seizures in mice; assay: Pentylenetetrazol seizures; type: in vivo, mouse; details: for ED50: Mus musculus, ip, 1 h
Description: In this test (modification of the method introduced by Everett and Richard, J. Pharmacol. Exptl. Ther., 81: 402, 1944), groups of ten mice each are pretreated i.p. with vehicle and various doses of the compound of Example 6 and placed in Plexiglas squares. Thirty minutes later, all mice are injected subcutaneously (s.c.) with pentylenetetrazol at 125 mg/kg and observed immediately thereafter for convulsions and death for a period of 1 hour.

[10] = tested on: maximal electroshock seizures in mice; assay: Maximal electroshock seizures; type: in vivo, mouse
Description: Groups of ten mice each were injected i.p. with a vehicle and the compound of Example 6 and placed in individual Plexiglas squares. Thirty minutes after i.p. injection, each mouse was administered an electric shock transcorneally at 50mA intensity, 0.2 seconds duration (Swinyard, et al, J. Pharmacol. Exptl. Ther., 106: 319, 1952). The criterion for activity is protection against tonic extension of the hind limbs. The dose necessary to protect 50% of the mice (MES50) was determined.

[11] = tested on: electroshock-induced fighting in mice; assay: Electroshock-induced fighting in mice; type: in vivo, mouse; details: for ED50: Mus musculus, ip, read-out: ED50 (95% Confidence Limits), Electroshock-Induced Fighting in Mice; for NTD50/ED50, Electroshock-Induced Fighting in Mice: i.p. administration
Source text: as §2

[12] = tested on: aggression induced in rats by destruction of the septal area; assay: Septal rat aggression; type: in vivo; details: for ED50: Rattus norvegicus, ip
Source text: as §1, §2

[13] = tested on: spontaneous locomotor activity in rats; assay: Spontaneous locomotor activity; type: in vivo; details: Rattus norvegicus, ip, 0.5 h, read-out: SD50 (dose causing 50% reduction from control activity)
[14] = tested on: mice trained to walk a rotating wooden rod; assay: Neurotoxicity (rotating rod / rotorod), mice; details: mouse, in vivo
Description: as §3

[15] = tested on: isolation-induced fighting in mice; assay: Isolated fighting mouse (IFM) test / isolated mouse aggression; type: in vivo; details: read-out: IFM % protected
[16] = tested on: tetrabenazine-induced ptosis in mice; details: stated as known comparison; cited from earlier work
[17] = ip, I.P., mice, 95% confidence limits, read-out: NTD50

For `CNC1=Nc2ccc(Cl)cc2C(c2ccccc2)=[N+]([O-])C1` [Chlordiazepoxide, chlordiazepoxide], the ED50 ([1]; read-out: ED50 (95% Confidence Limits), Isolated Mouse Aggression) was 20.5 mg/kg, the “NTD50/ED50, Isolated Mouse Aggression” value ([1]; i.p. administration) was 0.7 and the TD50 [2] was 4.3 mg/kg. The TD50 [3, 17] was 13.8 mg/kg, the “excitation, salivation, jumping, and fighting with d1-DOPA” value (shortened to “excitation, salivation, jumping”) [4] was “these symptoms were not observed” and the LD50 at 120 h ([5]; ip, I.P.) was 400 mg/kg. The LD50 at 120 h ([5]; po, P.O.) was 810 mg/kg, the LD50 at 120 h [6] was 265 mg/kg and the “effect on hypothalamic threshold / rage response” value [7] was “increase the threshold of the hypothalamus to electrical stimulation”. The “effect on hypothalamic threshold / rage response” value ([7]; listed as chlordiazepoxide) was “specific in inhibiting this response”, the “ED50, d-amphetamine aggregation” value [8] was “Inactive” and the ED50 ([9]; read-out: MET50, convulsions) was 7.1 mg/kg. The ED50 ([9]; read-out: MET50, death) was 2.6 mg/kg, the ED50 ([10]; Mus musculus, ip, 0.5 h, read-out: MES50) was 14.3 mg/kg and the ED50 [11] was 4.2 mg/kg. For the same compound, the “NTD50/ED50, Electroshock-Induced Fighting in Mice” value [11] was 3.3, the ED50 ([12]; read-out: ED50 (95% Confidence Limits), Septal Rat Aggression) was 25.8 mg/kg and the “NTD50/ED50, Septal Rat Aggression” value ([12]; i.p. administration) was 0.6.

For `CN(C)CCCN1c2ccccc2Sc2ccc(Cl)cc21` [Chlorpromazine, chlorpromazine], the ED50 ([1]; i.p. administration, read-out: ED50 (95% Confidence Limits), Isolated Mouse Aggression) was 2.8 mg/kg, the “NTD50/ED50, Isolated Mouse Aggression” value ([1]; i.p. administration) was 0.3 and the TD50 [2] was 5.3 mg/kg. For the same compound, the TD50 [3, 17] was 0.7 mg/kg, the “excitation, salivation, jumping” value [4] was “these symptoms were not observed” and the ED50 [13] was 1.7 mg/kg. The LD50 at 120 h ([5]; ip, I.P.) was 136 mg/kg, the LD50 at 120 h ([5]; po, P.O.) was 280 mg/kg and the LD50 at 120 h [6] was 138 mg/kg. The ED50 [8] was 1.2 mg/kg, the MET50 ([9]; I.P., mice, inactive at: Example 6 200 mg/kg, chlorpromazine 100 mg/kg) was “Inactive” and the MES50 ([10]; I.P., mice, inactive at: Example 6 200 mg/kg, chlorpromazine 25 mg/kg) was “Inactive”. The ED50 [11] was 5.5 mg/kg, the “NTD50/ED50, Electroshock-Induced Fighting in Mice” value [11] was 0.1 and the ED50 ([12]; i.p. administration, read-out: ED50 (95% Confidence Limits), Septal Rat Aggression) was 10.7 mg/kg. The “NTD50/ED50, Septal Rat Aggression” value ([12]; i.p. administration) was 0.5.

In the case of `Cc1ccc(NN=Nc2ccccc2C(N)=O)cc1Cl` [Example 3, 2-[3-(3-chloro-4-methylphenyl)-1(or 2)-triazeno]-benzamide], the responders at 30 mg/kg [1] is reported as 100%, the ED50 ([1]; i.p. administration, read-out: ED50 (IFM)) is reported as 9.1 mg/kg and the “protected test animals in the IFM test” value [1] is reported as 100%. For the same compound, the TD50 [3] was over 100 mg/kg and the depression [14] was “do not cause depression”.

For `Cc1nc(NN=Nc2ccccc2C(=O)NCCCN(C)C)sc1C(=O)NCc1ccccc1` [Example 7, N-(3-dimethylaminopropyl)-2-[3-(4-methyl-5-(N-benzylcarbamoyl)-2-thiazolyl)-2(or 1)-triazeno]-benzamide (2:1) sulfate salt], the “protected test animals in the IFM test” value [1] was 100%, the TD50 [3] was over 100 mg/kg and the depression [14] was “do not cause depression”. The responders at 60 mg/kg ([15]; ip, 60 mg/kg intraperitoneally) was 100%, the “septal rat aggression, protection” value ([12]; 6.25 mg/kg i.p.) was 100% and the “septal rat aggression, protection” value ([12]; 12.5 mg/kg i.p.) was 100%. For the same compound, the ED50 ([12]; indicated by 100% protection at 6.25 mg/kg, read-out: ED50, septal rat aggression) was under 6.25 mg/kg.

With `CCNC(=O)c1ccccc1N=NNc1nc(C)c(C(=O)NCc2ccccc2)s1` [Example 30] the responders at 30 mg/kg ([15]; po, 30 mg/kg, per os) was 60%.

Compound `Cc1c(Cl)cccc1NN=Nc1ccccc1C(N)=O` [Example 39] has a responders at 30 mg/kg [1] of 40%.

In the case of `CN(C)CCC=C1c2ccccc2CCc2ccccc21` [amitriptyline], the “reversal of tetrabenazine-induced ptosis by anti-depressants” value [16] is listed as “reverse tetrabenazine-induced ptosis”.

For `CNCCCN1c2ccccc2CCc2ccccc21` [desipramine], the “reversal of tetrabenazine-induced ptosis by anti-depressants” value [16] is given as “reverse tetrabenazine-induced ptosis”.

With `C#CCN(C)Cc1ccccc1` [pargyline] the “excitation, salivation, jumping” value [4] was “excitation, salivation, jumping, and fighting”.
